Data as given in publication PMC7719162, “Positioning of an unprecedented spiro[5.5]undeca ring system into kinase inhibitor space” (Scientific Reports, 2020).
Where two headings read alike, the source gives them in different places.

Key:
PKN2/PRK2 [1] = molecular target: T1, PKN2/PRK2 (Homo sapiens, UniProt Q16513); details: cited from earlier work
T1 construct: purchased Reaction Biology Corp

JNK2 = molecular target: T2, JNK2 (Homo sapiens, UniProt P45984); details: cited from earlier work
T2 construct: purchased Reaction Biology Corp

DAPK1 [2] = molecular target: T3, DAPK1 (Homo sapiens, UniProt P53355); details: cited from earlier work
T3 construct: purchased Reaction Biology Corp
T3 sequence (P53355 whole entry): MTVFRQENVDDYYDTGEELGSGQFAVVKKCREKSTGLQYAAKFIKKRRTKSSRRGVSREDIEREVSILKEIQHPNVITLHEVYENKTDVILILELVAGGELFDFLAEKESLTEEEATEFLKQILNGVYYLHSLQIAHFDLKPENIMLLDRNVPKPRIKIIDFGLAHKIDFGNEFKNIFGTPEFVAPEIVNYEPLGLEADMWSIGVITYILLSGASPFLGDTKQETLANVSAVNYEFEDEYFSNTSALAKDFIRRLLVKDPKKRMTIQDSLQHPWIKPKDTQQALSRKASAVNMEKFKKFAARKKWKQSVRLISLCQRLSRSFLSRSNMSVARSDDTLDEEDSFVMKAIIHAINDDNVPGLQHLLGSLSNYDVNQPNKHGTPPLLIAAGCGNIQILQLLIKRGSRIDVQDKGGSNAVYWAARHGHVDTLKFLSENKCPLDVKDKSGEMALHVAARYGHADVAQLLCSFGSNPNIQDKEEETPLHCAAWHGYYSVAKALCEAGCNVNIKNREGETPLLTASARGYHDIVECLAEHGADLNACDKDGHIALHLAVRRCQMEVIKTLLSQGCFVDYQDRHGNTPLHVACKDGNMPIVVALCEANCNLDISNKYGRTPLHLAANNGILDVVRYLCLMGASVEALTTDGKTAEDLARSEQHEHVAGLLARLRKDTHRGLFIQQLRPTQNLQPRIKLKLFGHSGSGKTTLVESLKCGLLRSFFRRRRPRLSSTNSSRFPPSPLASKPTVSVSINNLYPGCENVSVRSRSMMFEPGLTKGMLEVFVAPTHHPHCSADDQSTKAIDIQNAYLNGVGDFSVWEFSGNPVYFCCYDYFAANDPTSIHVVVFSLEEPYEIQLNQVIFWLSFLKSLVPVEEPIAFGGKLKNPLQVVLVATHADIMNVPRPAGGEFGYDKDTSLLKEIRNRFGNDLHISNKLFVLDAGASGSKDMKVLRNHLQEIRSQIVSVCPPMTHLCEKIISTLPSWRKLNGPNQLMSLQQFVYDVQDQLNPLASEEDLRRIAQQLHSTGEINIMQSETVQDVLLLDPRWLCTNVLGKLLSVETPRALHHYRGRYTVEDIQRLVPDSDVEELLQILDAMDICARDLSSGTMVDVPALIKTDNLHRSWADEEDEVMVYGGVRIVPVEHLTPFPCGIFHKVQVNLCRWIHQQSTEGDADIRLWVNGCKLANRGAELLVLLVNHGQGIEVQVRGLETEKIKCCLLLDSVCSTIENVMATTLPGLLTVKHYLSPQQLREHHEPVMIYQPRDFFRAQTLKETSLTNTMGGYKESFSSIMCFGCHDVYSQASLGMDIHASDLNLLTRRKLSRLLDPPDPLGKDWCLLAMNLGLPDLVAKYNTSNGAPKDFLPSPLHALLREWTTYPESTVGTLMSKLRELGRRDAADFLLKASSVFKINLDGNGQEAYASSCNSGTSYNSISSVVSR

TRKB = molecular target: T4, TRKB (Homo sapiens, UniProt Q16620); details: cited from earlier work
T4 construct: purchased Reaction Biology Corp

[3] = test system: NO production in LPS-activated BV-2 cells; assay: NO production assay (Griess) in LPS-activated BV-2 cells; type: cell-based, murine; details: read-out: NO Inhibition IC50
Protocol: 3-(4,5-dimethylthiazol-2-yl)-2,5-diphenyl-tetrazolium bromide (MTT) assay was performed to evaluate the cytotoxicity of the samples to the microglia. BV2 cells at the density of 4 × 10^4 cells /well were seeded in the 96 well plate and incubated for 24 h. Seeded cells were pre-treated with different concentration of the samples, and LPS (100 ng/ml) activation was performed after 30 min of compound treatment. Treated plate were incubated for 24 h in the incubator and nitric oxide assay and cell viability assay was performed. Treated cell’s conditioned medium was used to evaluate the NO assay, and the attached cells were used to evaluate the cell viability assay. 50 µL of conditioned medium (CM) from treated cells were transferred to a new 96 well plate for NO assay. This CM was mixed with the equal volume of the mixture of Gries reagent ((1% sulfanilamide and 0.1% N-1-napthylethylenediamine dihydrochloride). NaNO2 was used as standard and the colorimetric change were evidenced by measuring its OD at 540 nm in a microplate reader. The cells in the plate were incubated for 1 h with MTT solution making it the final concentration of […]. Blue stained cells were incubated with 200 ul of DMSO and the solution get changed to purple/formazan color and it was observed by measuring the absorbance at 570 nm in a microplate reader.NG-mono-methyl-L-arginine (L-NMMA), a well-known nitric oxide synthase (NOS) inhibitor, was used as a positive control.

JNK3 = molecular target: T5, JNK3 (Homo sapiens, UniProt P53779); details: cited from earlier work
T5 construct: purchased Reaction Biology Corp

AMPK(A1/B1/G1) [4] = molecular target: T6, AMPK(A1/B1/G1) (Homo sapiens, UniProt P54619+Q13131+Q9Y478); assay: Kinase panel assay (radiolabelled); type: biochemical; details: 30 μM compound, ATP 10 μM; duplicates Data 1/Data 2; read-out: % Enzyme Activity (relative to DMSO controls)
T6 construct: purchased Reaction Biology Corp

AMPK(A1/B1/G1) [5] = molecular target: T7, AMPK(A1/B1/G1) (Homo sapiens, UniProt Q13131); assay: Kinase panel assay (radiolabelled); type: biochemical; details: 30 μM compound, ATP 10 μM; duplicates Data 1/Data 2
T7 construct: purchased Reaction Biology Corp

PI3Kd (p110d/p85a) = molecular target: T8, PI3Kd (p110d/p85a) (Homo sapiens, UniProt O00329); assay: Kinase panel assay (lipid kinase); type: biochemical; details: 30 μM compound, ATP 10 μM, duplicates Data 1/Data 2
T8 construct: purchased Reaction Biology Corp

DAPK1 [6] = molecular target: T3, DAPK1; assay: Kinase panel assay (radiolabelled); type: biochemical; details: ATP 10 μM
IL-6 = assay: Secreted IL-6 ELISA in LPS-induced BV-2 cells; type: cell-based, murine
Protocol: To evaluate the secreted level of Prostaglandin E2 (PGE2), Tumor necrosis factor (TNF-α), Interleukin (IL-6), Interleukin (IL-1β), BV2 cells were seeded in a 6 well plate at the density of 1.5 × 10^6 cells/well in DMEM and incubated for 24 h. Seeded cells sere pretreated and, activated with LPS for next 24 h. conditioned medium from treated cells were collected and stored at -80 degree for longer period of time. The amount of TNF-α, IL-1β, PGE2,and IL-6 were evaluated using the competitive enzyme immunoassay kit. PGE2 kit were obtained from (Cayman Chemical, Ann Arbor, MI, USA) and TNF-α, IL-1β, and IL-6 were measured using ELISA development kits (R&D Systems, Minneapolis, MN, USA). All the protocol was exactly followed as written in the manual.

P38b/MAPK11 = molecular target: T9, P38b/MAPK11 (Homo sapiens, UniProt Q15759); assay: Kinase panel assay (radiolabelled); type: biochemical; details: ATP 10 μM
T9 construct: purchased Reaction Biology Corp
T9 sequence (Q15759 whole entry): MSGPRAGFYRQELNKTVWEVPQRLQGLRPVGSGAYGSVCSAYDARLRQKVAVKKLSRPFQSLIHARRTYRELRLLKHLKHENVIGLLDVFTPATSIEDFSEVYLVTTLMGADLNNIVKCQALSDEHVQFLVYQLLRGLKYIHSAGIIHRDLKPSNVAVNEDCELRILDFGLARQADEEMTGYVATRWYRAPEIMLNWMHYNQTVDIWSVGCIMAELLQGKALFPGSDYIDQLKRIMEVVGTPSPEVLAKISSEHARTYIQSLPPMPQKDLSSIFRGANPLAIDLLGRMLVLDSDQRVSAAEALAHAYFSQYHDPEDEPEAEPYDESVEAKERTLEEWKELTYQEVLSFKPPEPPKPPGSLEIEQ

PKN2/PRK2 [7] = molecular target: T1, PKN2/PRK2; assay: Kinase panel assay (radiolabelled); type: biochemical; details: ATP 10 μM
TRKA-TPR = TRKA-TPR (Homo sapiens, UniProt P04629); assay: biochemical; details: 30 μM compound, ATP 10 μM, duplicates Data 1/Data 2
TRKC (G623R) = molecular target: T10, TRKC (G623R) (Homo sapiens, UniProt Q16288, G623R); assay: Kinase panel assay (radiolabelled); type: biochemical; details: 30 μM compound, ATP 10 μM, duplicates Data 1/Data 2
T10 construct: purchased Reaction Biology Corp

DNA-PK = molecular target: T11, DNA-PK (Homo sapiens, UniProt P78527); assay: Kinase panel assay (radiolabelled); type: biochemical; details: 30 μM compound, ATP 10 μM, duplicates Data 1/Data 2
T11 construct: purchased Reaction Biology Corp

PI3Ka (p110a/p85a) = molecular target: T12, PI3Ka (p110a/p85a) (Homo sapiens, UniProt P42336); assay: Kinase panel assay (lipid kinase); type: biochemical; details: 30 μM compound, ATP 10 μM, duplicates Data 1/Data 2
T12 construct: purchased Reaction Biology Corp

DAPK2 = molecular target: T13, DAPK2 (Homo sapiens, UniProt Q9UIK4); assay: Kinase panel assay (radiolabelled); type: biochemical; details: ATP 10 μM
T13 construct: purchased Reaction Biology Corp
T13 sequence (Q9UIK4 whole entry): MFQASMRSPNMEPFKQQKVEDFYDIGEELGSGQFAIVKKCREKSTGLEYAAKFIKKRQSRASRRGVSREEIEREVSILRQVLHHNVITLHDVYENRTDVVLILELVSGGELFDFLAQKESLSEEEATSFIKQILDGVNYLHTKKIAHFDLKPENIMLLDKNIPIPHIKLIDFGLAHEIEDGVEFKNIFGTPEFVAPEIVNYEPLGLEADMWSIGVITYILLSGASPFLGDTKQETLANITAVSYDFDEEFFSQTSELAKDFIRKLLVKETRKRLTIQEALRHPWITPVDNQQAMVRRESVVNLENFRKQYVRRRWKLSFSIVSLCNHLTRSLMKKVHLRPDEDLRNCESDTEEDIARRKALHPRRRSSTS

TRKA-TFG (TRK-T3) = molecular target: T14, TRKA-TFG (TRK-T3) (Homo sapiens, UniProt P04629+Q92734); assay: Kinase panel assay (radiolabelled); type: biochemical; details: 30 μM compound, ATP 10 μM, duplicates Data 1/Data 2
T14 construct: TFG (fusion partner); purchased Reaction Biology Corp

EIF2AK3 = molecular target: T15, EIF2AK3 (Homo sapiens, UniProt Q9NZJ5); assay: Kinase panel assay (radiolabelled); type: biochemical; details: 30 μM compound, ATP 10 μM, duplicates Data 1/Data 2
T15 construct: purchased Reaction Biology Corp

PI3Kg (p110g) = molecular target: T16, PI3Kg (p110g) (Homo sapiens, UniProt P48736); assay: Kinase panel assay (lipid kinase); type: biochemical; details: 30 μM compound, ATP 10 μM, duplicates Data 1/Data 2
T16 construct: purchased Reaction Biology Corp
T16 sequence (P48736 whole entry): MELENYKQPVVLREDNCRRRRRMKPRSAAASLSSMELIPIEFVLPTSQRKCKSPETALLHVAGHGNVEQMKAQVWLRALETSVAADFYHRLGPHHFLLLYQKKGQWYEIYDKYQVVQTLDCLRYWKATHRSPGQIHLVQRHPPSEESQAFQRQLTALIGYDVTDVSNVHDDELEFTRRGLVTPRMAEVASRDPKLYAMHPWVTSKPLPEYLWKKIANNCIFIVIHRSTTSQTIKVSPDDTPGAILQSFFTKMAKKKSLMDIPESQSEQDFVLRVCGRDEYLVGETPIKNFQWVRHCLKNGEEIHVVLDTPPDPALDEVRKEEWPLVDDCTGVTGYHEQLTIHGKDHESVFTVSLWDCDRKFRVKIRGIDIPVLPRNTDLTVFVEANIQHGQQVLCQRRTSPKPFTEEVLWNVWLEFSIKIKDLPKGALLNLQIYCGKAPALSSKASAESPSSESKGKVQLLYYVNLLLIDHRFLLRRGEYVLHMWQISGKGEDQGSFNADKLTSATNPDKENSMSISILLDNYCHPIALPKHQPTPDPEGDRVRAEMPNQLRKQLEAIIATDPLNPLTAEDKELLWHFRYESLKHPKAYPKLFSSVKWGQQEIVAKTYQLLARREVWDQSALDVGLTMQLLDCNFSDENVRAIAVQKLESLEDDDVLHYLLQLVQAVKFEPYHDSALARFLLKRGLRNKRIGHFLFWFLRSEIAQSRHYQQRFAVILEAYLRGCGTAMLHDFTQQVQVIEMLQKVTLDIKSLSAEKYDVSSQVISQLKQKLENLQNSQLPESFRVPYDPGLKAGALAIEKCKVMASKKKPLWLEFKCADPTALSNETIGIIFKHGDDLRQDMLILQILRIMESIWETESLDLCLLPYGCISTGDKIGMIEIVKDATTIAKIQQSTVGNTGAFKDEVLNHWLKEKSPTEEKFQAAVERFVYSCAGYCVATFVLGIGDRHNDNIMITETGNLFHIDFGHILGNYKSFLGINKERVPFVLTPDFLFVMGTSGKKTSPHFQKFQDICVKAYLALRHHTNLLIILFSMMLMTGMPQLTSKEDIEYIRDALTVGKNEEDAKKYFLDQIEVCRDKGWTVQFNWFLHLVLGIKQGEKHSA

CDK2/cyclin O = molecular target: T17, CDK2/cyclin O (Homo sapiens, UniProt P24941); assay: Kinase panel assay (radiolabelled); type: biochemical; details: ATP 10 μM
T17 construct: purchased Reaction Biology Corp

CDK3/cyclin E = molecular target: T18, CDK3/cyclin E (Homo sapiens, UniProt Q00526); assay: Kinase panel assay (radiolabelled); type: biochemical; details: ATP 10 μM
T18 construct: purchased Reaction Biology Corp
T18 sequence (Q00526 whole entry): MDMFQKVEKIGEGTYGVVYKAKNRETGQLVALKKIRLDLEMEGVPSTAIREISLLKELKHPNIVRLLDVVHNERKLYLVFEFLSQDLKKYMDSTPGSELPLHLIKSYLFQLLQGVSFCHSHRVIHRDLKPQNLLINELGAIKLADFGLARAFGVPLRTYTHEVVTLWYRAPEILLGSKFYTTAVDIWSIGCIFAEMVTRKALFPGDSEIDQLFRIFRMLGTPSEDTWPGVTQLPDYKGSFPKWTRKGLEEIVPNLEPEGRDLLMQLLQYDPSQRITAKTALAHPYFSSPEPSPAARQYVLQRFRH
T18 sequence (P24864 whole entry partner): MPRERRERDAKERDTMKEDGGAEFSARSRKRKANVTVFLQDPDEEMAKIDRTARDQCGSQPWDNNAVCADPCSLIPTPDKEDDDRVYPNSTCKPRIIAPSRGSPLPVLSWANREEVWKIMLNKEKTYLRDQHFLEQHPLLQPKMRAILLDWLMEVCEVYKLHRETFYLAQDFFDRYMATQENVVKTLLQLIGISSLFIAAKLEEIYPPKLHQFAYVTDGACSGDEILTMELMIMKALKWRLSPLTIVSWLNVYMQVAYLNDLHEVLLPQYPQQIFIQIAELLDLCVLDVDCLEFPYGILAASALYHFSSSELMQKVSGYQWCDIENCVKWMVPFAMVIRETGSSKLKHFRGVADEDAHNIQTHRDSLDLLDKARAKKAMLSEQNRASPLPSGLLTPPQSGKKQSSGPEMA

GSK3β = GSK3β (Homo sapiens, UniProt P49841); assay: GSK3β radiolabelled kinase assay (% residual activity, IC50, ATP competition); type: biochemical
[8] = read-out: % Enzyme Activity (relative to DMSO controls)
[9] = 30 μM compound, duplicates Data 1/Data 2
[10] = 30 μM compound, duplicates Data 1/Data 2, read-out: % Enzyme Activity (relative to DMSO controls)
[11] = 30 μM, average ± SD, read-out: % Residual Activity at 30 μM

T1 sequence (Q16513 whole entry): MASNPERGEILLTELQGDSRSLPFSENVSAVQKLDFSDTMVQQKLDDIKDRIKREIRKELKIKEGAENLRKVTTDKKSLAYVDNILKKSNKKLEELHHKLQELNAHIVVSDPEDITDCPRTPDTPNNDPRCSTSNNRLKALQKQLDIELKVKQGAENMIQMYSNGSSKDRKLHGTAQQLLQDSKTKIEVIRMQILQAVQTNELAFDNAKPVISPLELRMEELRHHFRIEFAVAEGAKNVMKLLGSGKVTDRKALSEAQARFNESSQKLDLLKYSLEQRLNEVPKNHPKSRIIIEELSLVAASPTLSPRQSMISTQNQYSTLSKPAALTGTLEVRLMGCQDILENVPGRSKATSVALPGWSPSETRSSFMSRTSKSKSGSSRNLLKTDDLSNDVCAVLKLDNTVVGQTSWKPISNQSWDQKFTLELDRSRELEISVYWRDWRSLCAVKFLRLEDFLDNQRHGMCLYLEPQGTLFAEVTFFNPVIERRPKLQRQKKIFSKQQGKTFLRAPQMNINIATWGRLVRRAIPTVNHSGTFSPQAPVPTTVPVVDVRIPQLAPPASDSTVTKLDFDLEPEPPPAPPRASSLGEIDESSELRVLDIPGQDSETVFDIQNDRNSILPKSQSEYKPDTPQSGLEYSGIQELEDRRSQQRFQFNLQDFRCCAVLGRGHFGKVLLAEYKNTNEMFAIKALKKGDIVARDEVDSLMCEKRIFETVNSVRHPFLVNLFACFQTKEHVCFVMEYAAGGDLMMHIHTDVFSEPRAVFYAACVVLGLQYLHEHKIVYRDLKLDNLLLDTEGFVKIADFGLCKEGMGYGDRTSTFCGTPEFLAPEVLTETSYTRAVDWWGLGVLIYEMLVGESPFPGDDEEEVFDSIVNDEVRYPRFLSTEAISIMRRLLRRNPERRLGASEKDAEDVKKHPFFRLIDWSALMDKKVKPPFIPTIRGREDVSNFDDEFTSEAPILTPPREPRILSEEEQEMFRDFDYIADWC

Question: For O=C1C=CC2(C=C1)OCC(Cc1cc(C(F)(F)F)cc(C(F)(F)F)c1)C(=O)N2c1ccccc1 (racemic) [1c], which “% Residual Activity at 30 μM” value (PKN2/PRK2 [1]) is on record?
Answer: Its value is 63.5 ± 1.8%.

Question: And the “% Residual Activity at 30 μM” value (JNK2)?
Answer: The value was 58.3 ± 0.7%.

Question: And the “% Residual Activity at 30 μM” value (DAPK1 [2])?
Answer: Its value is 45.4 ± 0.1%.

Question: What about the “% Residual Activity at 30 μM” value (TRKB) of the same compound?
Answer: The value was 94.1 ± 1.7%.

Question: What about the IC50 [3] of the same compound?
Answer: The IC50 was 70 ± 10 nM.

Question: And the “% Residual Activity at 30 μM” value (JNK3)?
Answer: Its value is 72.0 ± 2.0%.

Question: With O=C1C=CC2(C=C1)OCC(Cc1cn(-c3cccc(Cl)c3)nn1)C(=O)N2c1ccccc1 (stereo not shown) [2d, 3-((1-(3-Chlorophenyl)-1H-1,2,3-triazol-4-yl)methyl)-5-phenyl-1-oxa-5-azaspiro[5.5]undeca-7,10-diene-4,9-dione] as the compound, how does the remaining activity at 30 µM (AMPK(A1/B1/G1) [4]) read?
Answer: Its remaining activity at 30 µM is 60.9%.

Question: What about the “% Enzyme Activity (relative to DMSO controls)” value (AMPK(A1/B1/G1) [5]) of the same compound?
Answer: Its value is 60.04%.

Question: What about the “% Enzyme Activity (relative to DMSO controls)” value (PI3Kd (p110d/p85a)) of the same compound?
Answer: The value was 108.46%.

Question: What about the remaining activity at 30 µM (PI3Kd (p110d/p85a); [8]) of the same compound?
Answer: Its remaining activity at 30 µM is 109%.

Question: What about the “% Enzyme Activity (relative to DMSO controls)” value (DAPK1 [6]; [9]) of the same compound?
Answer: Its value is 73.41%.

Question: And the remaining activity at 30 µM (DAPK1 [6]; [10])?
Answer: Its remaining activity at 30 µM is 75.8%.

Question: And the remaining activity at 30 µM (DAPK1 [6]; [11])?
Answer: Its remaining activity at 30 µM is 74.6 ± 1.7%.

Question: And the “IL-6 level” value (IL-6)?
Answer: The value was “concentration-dependent manner”.

Question: And the “% Enzyme Activity (relative to DMSO controls)” value (P38b/MAPK11; [9])?
Answer: Its value is 109.52%.

Question: And the remaining activity at 30 µM (P38b/MAPK11; [10])?
Answer: The remaining activity at 30 µM was 110%.

Question: What about the remaining activity at 30 µM (P38b/MAPK11; [11]) of the same compound?
Answer: Its remaining activity at 30 µM is 109.9 ± 0.5%.

Question: And the IC50 ([3]; Mus musculus)?
Answer: Its IC50 is 660 nM.

Question: And the “% Enzyme Activity (relative to DMSO controls)” value (PKN2/PRK2 [7]; [9])?
Answer: The value was 97.21%.

Question: What about the remaining activity at 30 µM (PKN2/PRK2 [7]; [10]) of the same compound?
Answer: The remaining activity at 30 µM was 102%.

Question: And the remaining activity at 30 µM (PKN2/PRK2 [7]; [11])?
Answer: The remaining activity at 30 µM was 99.5 ± 3.3%.

Question: What about the “% Enzyme Activity (relative to DMSO controls)” value (TRKA-TPR) of the same compound?
Answer: The value was 101.99%.

Question: And the remaining activity at 30 µM (TRKA-TPR; [8])?
Answer: Its remaining activity at 30 µM is 106%.

Question: And the “% Enzyme Activity (relative to DMSO controls)” value (TRKC (G623R))?
Answer: The value was 90.32%.

Question: And the remaining activity at 30 µM (TRKC (G623R); [8])?
Answer: Its remaining activity at 30 µM is 92.1%.

Question: And the “% Enzyme Activity (relative to DMSO controls)” value (DNA-PK)?
Answer: Its value is 101.60%.

Question: And the remaining activity at 30 µM (DNA-PK; [8])?
Answer: Its remaining activity at 30 µM is 103%.

Question: What about the “% Enzyme Activity (relative to DMSO controls)” value (PI3Ka (p110a/p85a)) of the same compound?
Answer: Its value is 250.92%.

Question: And the remaining activity at 30 µM (PI3Ka (p110a/p85a); [8])?
Answer: Its remaining activity at 30 µM is 252%.

Question: And the “% Enzyme Activity (relative to DMSO controls)” value (DAPK2; [9])?
Answer: Its value is 109.81%.

Question: What about the remaining activity at 30 µM (DAPK2; [10]) of the same compound?
Answer: Its remaining activity at 30 µM is 111%.

Question: And the remaining activity at 30 µM (DAPK2; [11])?
Answer: The remaining activity at 30 µM was 110.2 ± 0.6%.

Question: And the “% Enzyme Activity (relative to DMSO controls)” value (TRKA-TFG (TRK-T3))?
Answer: The value was 102.82%.

Question: And the remaining activity at 30 µM (TRKA-TFG (TRK-T3); [8])?
Answer: The remaining activity at 30 µM was 109%.

Question: And the “% Enzyme Activity (relative to DMSO controls)” value (EIF2AK3)?
Answer: Its value is 70.64%.

Question: And the remaining activity at 30 µM (EIF2AK3; [8])?
Answer: Its remaining activity at 30 µM is 70.8%.

Question: And the “% Enzyme Activity (relative to DMSO controls)” value (PI3Kg (p110g))?
Answer: The value was 85.15%.

Question: And the remaining activity at 30 µM (PI3Kg (p110g); [8])?
Answer: The remaining activity at 30 µM was 87.4%.

Question: What about the “% Enzyme Activity (relative to DMSO controls)” value (CDK2/cyclin O; [9]) of the same compound?
Answer: Its value is 54.15%.

Question: And the remaining activity at 30 µM (CDK2/cyclin O; [10])?
Answer: Its remaining activity at 30 µM is 54.4%.

Question: What about the remaining activity at 30 µM (CDK2/cyclin O; [11]) of the same compound?
Answer: Its remaining activity at 30 µM is 54.3 ± 0.1%.

Question: What about the “% Enzyme Activity (relative to DMSO controls)” value (CDK3/cyclin E; [9]) of the same compound?
Answer: Its value is 59.02%.

Question: And the remaining activity at 30 µM (CDK3/cyclin E; [10])?
Answer: Its remaining activity at 30 µM is 61.6%.

Question: And the remaining activity at 30 µM (CDK3/cyclin E; [11])?
Answer: The remaining activity at 30 µM was 60.3 ± 1.9%.

Question: What about the IC50 (GSK3β; ATP 1 μM (Table 2), read-out: IC50 on GSK3β (converted)) of the same compound?
Answer: Its IC50 is 7040 nM.

Question: What about the remaining activity at 10 µM (GSK3β; at 10 μM compound) of the same compound?
Answer: The remaining activity at 10 µM was 51.1 ± 6.1%.
